Results as given in patent US20240228494A1, “COMPOUNDS” (PATHIOS THERAPEUTICS LIMITED, priority 2021, published 2024).

Molecular target: human recombinant GPR65 (Homo sapiens, UniProt Q8IYL9)
Assay: Human GPR65 cAMP HTRF antagonist assay
Format: cell-based
Details: not given
Description: In one preferred embodiment, the compound prevents the increase in cytoplasmic cAMP levels expected following GPR65 activation at acidic pH. This prevention of cAMP accumulation in turn prevents downstream signalling through ICER, as described above. The “Human GPR65 cyclic adenosine monophosphate (cAMP) Homogeneous Time Resolved Fluorescence (HTRF) antagonist assay”, or simply “cAMP assay”, as described in the accompanying examples, can be used to measure the potency of GPR65 modulators, which is expressed as the concentration of compound required to reduce the increase in cAMP concentration upon GPR65 activation by 50% (i.e. an IC50).
Human GPR65 Cyclic Adenosine Monophosphate (cAMP) Homogeneous Time Resolved Fluorescence (HTRF) Antagonist Assay Procedure
IC50 data was obtained by the following procedure:
1321N1 human astrocytoma cells stably expressing human recombinant GPR65 (1321N1-hrGPR65 cells, EuroscreenFast) were cultured according to the vendor's instructions.
Compounds were tested for their ability to antagonise GPR65, through measuring the concentration of cytoplasmic cAMP following treatment of the cells at a pH of 7.2 to activate GPR65 signalling and addition of the compound to be tested. The extent to which the expected rise in cAMP concentration upon GPR65 activation was suppressed by the added compound is indicative of its potency. The assay was carried out according to EuroscreenFast assay methodology as follows.
On the day of the assay, test compounds were added to 384-well, low volume, white microtiter plates by acoustic dispensing. KRH buffer (5 mM KCl, 1.25 mM MgSO4, 124 mM NaCl, 25 mM HEPES, 13.3 mM Glucose, 1.25 mM KH2PO4 and 1.45 mM CaCl2) was adjusted to pH 6.5, pH 7.6 and pH 8.4 by adding NaOH. 1321N1-hGPR65 cells were rapidly thawed and diluted in KRH, pH 7.6 prior to centrifugation at 300×g for 5 min and resuspension in assay buffer (KRH, pH 7.6, supplemented with 1 mM 3-isobutyl-1-methylxanthine (IBMX) and 200 μM ethylenediaminetetraacetic acid (EDTA)). Cells were added to assay plates at a density of 2,000 cells per well in a volume of 5 μl. Assay plates were briefly centrifuged at 100×g and then incubated at room temperature for 30 min. Cells were stimulated by the addition of 5 μL KRH, pH 6.5, to achieve an assay pH of 7.2, while control wells received 5 μl KRH, pH 8.4 to achieve an assay pH of 7.9. Assay plates were briefly centrifuged at 100×g and then incubated at room temperature for 30 min.
Accumulation of cAMP was detected by cAMP HTRF kit (Cisbio). d2-labeled cAMP and cryptate-labeled anti-cAMP antibody in Lysis and Detection Buffer (Cisbio) were added to assay plates, and the plates were incubated at room temperature for 1 h. HTRF measurements were performed using a Pherastar FSX instrument. Acceptor and donor emission signals were measured at 665 nm and 620 nm, respectively, and HTRF ratios were calculated as signal665 nm/signal620 nm×10^4. Data were normalised to high and low control values and fitted with 4-parameter logistic regression to determine hGPR65 IC50 values for the test compounds, which are shown in Table 1.

Sequence of human recombinant GPR65 (Q8IYL9 whole entry): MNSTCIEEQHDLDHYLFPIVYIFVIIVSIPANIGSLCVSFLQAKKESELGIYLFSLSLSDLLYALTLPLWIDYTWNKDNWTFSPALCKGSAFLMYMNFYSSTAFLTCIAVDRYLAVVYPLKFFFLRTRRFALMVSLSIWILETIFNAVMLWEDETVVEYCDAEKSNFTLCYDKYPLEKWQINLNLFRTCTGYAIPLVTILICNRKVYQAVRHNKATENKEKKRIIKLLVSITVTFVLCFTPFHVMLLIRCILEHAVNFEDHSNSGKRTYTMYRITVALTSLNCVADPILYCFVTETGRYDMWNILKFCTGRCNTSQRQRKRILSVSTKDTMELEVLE

SMILES | IC50 [nM]
S=C(Nc1ccc(Cl)c(Cl)c1)N1C2CCC1c1cncnc1C2 (racemic) [Compound 5, (±)-N-(3,4-dichlorophenyl)-6,7,8,9-tetrahydro-5H-5,8-epiminocyclo-hepta[d]pyrimidine-10-carbothioamide] | < 500
O=C(Oc1ccc(Cl)c(Cl)c1)N1C2CCC1c1cncnc1C2 (racemic) [Compound 10, 3,4-dichlorophenyl (±)-6,7,8,9-tetrahydro-5H-5,8-epiminocyclohepta-[d]pyrimidine-10-carboxylate] | 500 to 5000
Fc1cc(C(F)(F)F)c(Br)cc1NC(=S)N1[C@H]2CC[C@@H]1c1ccnc(F)c1C2 [Compound 1, (5R,8S)—N-(5-Bromo-2-fluoro-4-(trifluoromethyl)phenyl)-1-fluoro-6,7,8,9-tetrahydro-5H-5,8-epiminocyclohepta[c]pyridine-10-carbothioamide] | < 500
O=c1cc2c(c[nH]1)[C@H]1CC[C@@H](C2)N1C(=S)Nc1cc(Cl)c(C(F)(F)F)cc1F [Compound 2, (6S,9R)-N-(5-Chloro-2-fluoro-4-(trifluoromethyl)phenyl)-3-oxo-3,5,6,7,8,9-hexahydro-2H-6,9-epiminocyclohepta[c]pyridine-10-carbothioamide] | < 500
Fc1cc(Cl)c(Cl)cc1NC(=S)N1[C@H]2CC[C@@H]1c1ccnc(F)c1C2 [Compound 3, (5R,8S)-N-(4,5-dichloro-2-fluorophenyl)-1-fluoro-6,7,8,9-tetrahydro-5H-5,8-epiminocyclo-hepta[c]pyridine-10-carbothioamide] | < 500
Fc1cc(C(F)(F)F)c(Cl)cc1NC(=S)N1[C@H]2CC[C@@H]1c1ccnc(F)c1C2 [Compound 4, (5R,8S)-N-(5-chloro-2-fluoro-4-(trifluoromethyl)phenyl)-1-fluoro-6,7,8,9-tetrahydro-5H-5,8-epiminocyclohepta[c]pyridine-10-carbothioamide] | < 500
N#C/N=C(\Nc1ccc(Cl)c(Cl)c1)N1[C@H]2CC[C@@H]1c1ccnc(F)c1C2 [Compound 6, (5R,8S,)—N′-Cyano-N-(3,4-dichlorophenyl)-1-fluoro-6,7,8,9-tetrahydro-5H-5,8-epiminocyclohepta[c]pyridine-10-carboximidamide] | < 500
Fc1cc(Cl)c(Cl)cc1CN1[C@H]2CC[C@@H]1c1ccnc(F)c1C2 [Compound 9, (5R,8S)-10-(4,5-dichloro-2-fluorobenzyl)-1-fluoro-6,7,8,9-tetrahydro-5H-5,8-epiminocyclohepta[c]pyridine] | 500 to 5000
N#C/N=C(/Nc1cc(C(F)(F)F)c(Cl)cc1F)N1[C@H]2CC[C@@H]1c1ccnc(F)c1C2 [Compound 11, (5R,8S)-N-(4-Chloro-2-fluoro-5-(trifluoromethyl)phenyl)-N′-cyano-1-fluoro-6,7,8,9-tetrahydro-5H-5,8-epimino-cyclohepta[c]pyridine-10-carboximidamide] | < 500
N#C/N=C(/Nc1cc(Cl)c(Cl)cc1F)N1[C@H]2CC[C@@H]1c1ccnc(F)c1C2 [Compound 12, (5R,8S)-N′-cyano-N-(4,5-dichloro-2-fluorophenyl)-1-fluoro-6,7,8,9-tetrahydro-5H-5,8-epiminocyclohepta-[c]pyridine-10-carboximidamide] | < 500
O=C(C(=O)N1[C@H]2CC[C@@H]1c1ccnc(F)c1C2)c1ccc(Cl)c(Cl)c1 [Compound 13, 1-(3,4-Dichlorophenyl)-2-((5R,8S)-1-fluoro-6,7,8,9-tetrahydro-5H-5,8-epiminocyclohepta[c]pyridin-10-yl)ethane-1,2-dione] | 500 to 5000
O/N=C(\Nc1cc(Cl)c(Cl)cc1F)N1[C@H]2CC[C@@H]1c1ccnc(F)c1C2 [Compound 15, (5R,8S)—N-(4,5-dichloro-2-fluorophenyl)-1-fluoro-N′-hydroxy-6,7,8,9-tetrahydro-5H-5,8-epiminocyclohepta[c]pyridine-10-carboximidamide] | < 500
CO/N=C(\Nc1cc(Cl)c(Cl)cc1F)N1[C@H]2CC[C@@H]1c1ccnc(F)c1C2 [Compound 16, (5R,8S)—N-(4,5-dichloro-2-fluorophenyl)-1-fluoro-N′-methoxy-6,7,8,9-tetrahydro-5H-5,8-epiminocyclohepta[c]pyridine-10-carboximidamide] | < 500

Same assay, conditions: 1321N1-hrGPR65 cells, assay pH 7.2, suppression of cAMP rise; read-out: hGPR65 IC50

SMILES | IC50 [nM]
O=C(C(O)c1ccc(Cl)c(Cl)c1)N1[C@H]2CC[C@@H]1c1ccnc(F)c1C2 (single isomer, unassigned) [Compound 7] | > 5000
O=C(Cc1ccc(Cl)c(Cl)c1)N1[C@H]2CC[C@@H]1c1ccnc(F)c1C2 [Compound 8, 2-(3,4-dichlorophenyl)-1-((5R,8S)-1-fluoro-6,7,8,9-tetrahydro-5H-5,8-epimino-cyclohepta[c]pyridin-10-yl)ethan-1-one] | 500 to 5000
N=C(Nc1cc(Cl)c(Cl)cc1F)N1[C@H]2CC[C@@H]1c1ccnc(F)c1C2 [Compound 17, (5R,8S)—N′-(4,5-dichloro-2-fluorophenyl)-1-fluoro-6,7,8,9-tetrahydro-5H-5,8-epiminocyclohepta[c]pyridine-10-carboximidamide] | > 5000
